Converted amounts (≈) assume the structure as drawn. “And” between values parts separate entries of the source, which are not always exact repeats. Equal entries are not always repeated.
Assays:
Coxsackievirus A-5 = test: Plaque assay, minimal inhibitory concentration; type: cell-based; settings: HeLa Cells, inhibiting virus plaque formation by 50%
Rhinovirus Serotype 5 = test: Plaque assay, minimal inhibitory concentration; type: cell-based; settings: Enterovirus; HeLa Cells; inhibiting virus plaque formation by 50%
Rhinovirus strain 23 = test: Protection of tissue from cytopathic effects (plaque inhibition, filter paper disc or agar overlay); settings: 33°, 3 to 5 days
Rhinovirus strain 2 = test: as above; settings: 33°, 3 to 5 days
Rhinovirus Serotype 20 = test: Plaque assay, minimal inhibitory concentration; type: cell-based; settings: Enterovirus; HeLa Cells; inhibiting virus plaque formation by 50%
rhinovirus 32 [1] = test: Clinical challenge study, virus isolation from nasal washings; type: in vivo, human; settings: individual subjects on medication, intranasal; + or 0
Poliovirus Type 1 = test: microbe, parasite or virus in culture; type: cell-based; settings: Enterovirus C, HeLa, read-out: Minimal Inhibitory Concentration
Rhinovirus Serotype 23 = test: Plaque assay, minimal inhibitory concentration; type: cell-based; settings: Enterovirus, inhibiting virus plaque formation by 50%
Rhinovirus Serotype 3 = test: Plaque assay, minimal inhibitory concentration; type: cell-based; settings: Enterovirus; HeLa Cells; inhibiting virus plaque formation by 50%
Rhinovirus Type 15 = test: Viral sensitivity, filter disc method; type: cell-based; settings: strain 1734; about 50 mcg per disc, HeLa
Description: (§1) In the test for viral sensitivity, by the filter disc method, 5 mg. of 1-(4-phenyl-2-thiazolyl)-3-phenylguanidine was dissolved in 1-2 drops of dimethylsulfoxide and 2.5 ml. of saline. Filter paper discs, when saturated with the solution, absorbed about 50 mcg. of the compound.
(§2) Sensitivity tests were performed by a modification of the method of Herrmann, et al., Proc. Soc. Exp. Biol. & Med., 103, 625 (1960). HeLa monolayers in 150 mm plastic dishes were infected with 1.0 ml. of rhinovirus suspension known to produce destruction of 80-90% of the cells in 4 to 5 days. Following viral adsorption, the cells were overlayed with 30 ml. of Eagle's minimum essential medium containing Noble agar at 0.5%, bovine fetal serum at 2.0%, diethylaminoethyl dextran at 100 mcg/ml. and magnesium chloride at 3 millimoles. Filter discs (1/4 inch Carl Schleicher and Schuell Co., No. 740E), containing about 50 mcg. of 1-(4-phenyl-2-thiazolyl)-3-phenylguanidine, were placed on the solidified surface and the culture plates incubated at 33° C. After 4 to 5 days, the overlay medium was decanted and the cells stained with 0.1% crystal violet in 20% ethanol. A zone of 10 mm or more in which at least two-thirds of the cells were protected from viral cytopathic effects, indicates antiviral activity. The following Table III lists 35 rhinovirus serotypes which were inhibited by this compound.

Rhinovirus Type 26 = test: Viral sensitivity, filter disc method; type: cell-based; settings: strain 5660CV27; about 50 mcg per disc, HeLa
Description: as §1, §2

Rhinovirus Type 14 = test: Viral sensitivity, filter disc method; type: cell-based; settings: strain 1059; about 50 mcg per disc, HeLa
Description: as §1, §2

Rhinovirus Type 41 = test: Viral sensitivity, filter disc method; type: cell-based; settings: strain 56110; about 50 mcg per disc, HeLa
Description: as §1, §2

Rhinovirus Type 46 = test: Viral sensitivity, filter disc method; type: cell-based; settings: strain Baylor 2; about 50 mcg per disc, HeLa
Description: as §1, §2

Rhinovirus Type 13 = test: Viral sensitivity, filter disc method; type: cell-based; settings: strain 353; about 50 mcg per disc, HeLa
Description: as §1, §2

Rhinovirus Type 49 = test: Viral sensitivity, filter disc method; type: cell-based; settings: strain 8213; about 50 mcg per disc, HeLa
Description: as §1, §2

Rhinovirus Type 4 = test: Viral sensitivity, filter disc method; type: cell-based; settings: strain 16/60; about 50 mcg per disc, HeLa
Description: as §1, §2

Rhinovirus Type 23 = test: Viral sensitivity, filter disc method; type: cell-based; settings: strain 5124CV24; about 50 mcg per disc, HeLa
Description: as §1, §2

Rhinovirus Type 29 = test: Viral sensitivity, filter disc method; type: cell-based; settings: strain 179E; about 50 mcg per disc, HeLa
Description: as §1, §2

Rhinovirus Type 36 = test: Viral sensitivity, filter disc method; type: cell-based; settings: strain 342H; about 50 mcg per disc, HeLa
Description: as §1, §2

Rhinovirus Type 45 = test: Viral sensitivity, filter disc method; type: cell-based; settings: strain Baylor 1; about 50 mcg per disc, HeLa
Description: as §1, §2

Rhinovirus Type 25 = test: Viral sensitivity, filter disc method; type: cell-based; settings: strain 5426CV26; about 50 mcg per disc, HeLa
Description: as §1, §2

Rhinovirus Type 24 = test: Viral sensitivity, filter disc method; type: cell-based; settings: strain 5146CV25; about 50 mcg per disc, HeLa
Description: as §1, §2

Rhinovirus Type 9 = test: Viral sensitivity, filter disc method; type: cell-based; settings: strain 211CV13; about 50 mcg per disc, HeLa
Description: as §1, §2

Rhinovirus Serotype 14 = test: Plaque assay, minimal inhibitory concentration; type: cell-based; settings: Enterovirus; HeLa Cells; inhibiting virus plaque formation by 50%
Coxsackievirus A-22 = test: Plaque assay, minimal inhibitory concentration; type: cell-based; settings: HeLa Cells, inhibiting virus plaque formation by 50%
Rhinovirus strain 5 = test: Protection of tissue from cytopathic effects (plaque inhibition, filter paper disc or agar overlay); settings: 33°, 3 to 5 days
rhinovirus 32 [2] = test: Clinical challenge study in volunteers, clinical symptoms and infection; type: in vivo, human; settings: intranasal
Rhinovirus Serotype 12 = test: Plaque assay, minimal inhibitory concentration; type: cell-based; settings: Enterovirus; HeLa Cells; inhibiting virus plaque formation by 50%
Rhinovirus Serotype 32 = test: Plaque assay, minimal inhibitory concentration; type: cell-based; settings: Enterovirus; HeLa Cells; inhibiting virus plaque formation by 50%
Coxsackievirus B-1 = test: Plaque assay, minimal inhibitory concentration; type: cell-based; settings: HeLa Cells, inhibiting virus plaque formation by 50%

SMILES: N=C(Nc1ccccc1)Nc1nc(-c2ccccc2)cs1 [1-(4-phenyl-2-thiazolyl)-3-phenylguanidine]
- IC50 (Coxsackievirus A-5): 0.4 mg/L (≈ 1.36 µM)
- IC50 (Rhinovirus Serotype 5): 0.4 to 0.8 mg/L (≈ 1.36 to 2.72 µM)
- Protection of tissue from destruction by virus (Rhinovirus strain 23): +
- Protection of tissue from destruction by virus (Rhinovirus strain 2): +
- IC50 (Rhinovirus Serotype 20): 0.4 mg/L (≈ 1.36 µM)
- Virus Isolation From Nasal Washings (rhinovirus 32 [1]): 0
- IC50 (Poliovirus Type 1): 0.8 mg/L (≈ 2.72 µM)
- IC50 (Rhinovirus Serotype 23; L132, L-132 Cells): 0.4 to 0.8 mg/L (≈ 1.36 to 2.72 µM)
- IC50 (Rhinovirus Serotype 23; HeLa Cells): 0.2 to 0.4 mg/L (≈ 0.679 to 1.36 µM)
- IC50 (Rhinovirus Serotype 3): 0.4 to 0.8 mg/L (≈ 1.36 to 2.72 µM)
- inhibition of rhinovirus serotype (zone of 10 mm or more) (Rhinovirus Type 15): inhibited
- inhibition of rhinovirus serotype (zone of 10 mm or more) (Rhinovirus Type 26): inhibited
- inhibition of rhinovirus serotype (zone of 10 mm or more) (Rhinovirus Type 14): inhibited
- inhibition of rhinovirus serotype (zone of 10 mm or more) (Rhinovirus Type 41): inhibited
- inhibition of rhinovirus serotype (zone of 10 mm or more) (Rhinovirus Type 46): inhibited
- inhibition of rhinovirus serotype (zone of 10 mm or more) (Rhinovirus Type 13): inhibited
- inhibition of rhinovirus serotype (zone of 10 mm or more) (Rhinovirus Type 49): inhibited
- inhibition of rhinovirus serotype (zone of 10 mm or more) (Rhinovirus Type 4): inhibited
- inhibition of rhinovirus serotype (zone of 10 mm or more) (Rhinovirus Type 23): inhibited
- inhibition of rhinovirus serotype (zone of 10 mm or more) (Rhinovirus Type 29): inhibited
- inhibition of rhinovirus serotype (zone of 10 mm or more) (Rhinovirus Type 36): inhibited
- inhibition of rhinovirus serotype (zone of 10 mm or more) (Rhinovirus Type 45): inhibited
- inhibition of rhinovirus serotype (zone of 10 mm or more) (Rhinovirus Type 25): inhibited
- inhibition of rhinovirus serotype (zone of 10 mm or more) (Rhinovirus Type 24): inhibited
- inhibition of rhinovirus serotype (zone of 10 mm or more) (Rhinovirus Type 9): inhibited
- IC50 (Rhinovirus Serotype 14): 0.8 to 1.6 mg/L (≈ 2.72 to 5.44 µM)
- IC50 (Coxsackievirus A-22): 1.6 to 3.1 mg/L (≈ 5.44 to 10.5 µM)
- Protection of tissue from destruction by virus (Rhinovirus strain 5): +
- Clinical Symptom Scores (rhinovirus 32 [2]; individual subjects on medication (No. 3, 4, 6, 7, 9, 10, 13, 14, 17, 20, in order of lines), signs and symptoms scaled 0 not present to +3 severe): 0 and 11 and 2 and 4 and 3 and 5 and 6 and 1
- protection of humans from rhinovirus type 32 infection (rhinovirus 32 [2]): effective in protecting humans from rhinovirus type 32 infection
- volunteers who did not develop rhinovirus infection from challenge (rhinovirus 32 [2]; rhinovirus type 32 challenge, placebo 4 of 10): 9 of 10
- IC50 (Rhinovirus Serotype 12): 0.2 to 0.4 mg/L (≈ 0.679 to 1.36 µM)
- IC50 (Rhinovirus Serotype 32): 0.4 mg/L (≈ 1.36 µM)
- IC50 (Coxsackievirus B-1): 1.6 to 3.1 mg/L (≈ 5.44 to 10.5 µM)

From patent US4089965A, “Thiazolylphenylguanidines as antirhinovirus agents” (American Cyanamid Company, priority 1977, dated 1978)
